In brackets after ≈: the same amount, converted by molar mass.
Assays:
[1] = test system: Haemophilus influenzae (H. influenzae) 49247; test: Antibacterial activity, MIC (Table 6); format: cell-based
From the text: (§1) The antibacterial activity from a microbroth dilution method may be presented as the minimum inhibitory concentration (MIC in μg/mL). The MIC value is the lowest concentration of drug which prevents macroscopically visible growth under test conditions.
(§2) Antibacterial activity of test compounds against the Gram-negative bacteria Haemophilus influenzae (H. influenzae) 49247 is shown in Table 6, Moraxella catarrhalis (M. catarrhalis) 25238 is shown in Table 7 and Neisseria meningitidis (N. meningitidis) 13090 is shown in Table 8.

[2] = test system: Moraxella catarrhalis (M. catarrhalis) 25238; test: Antibacterial activity, MIC (Table 7); format: cell-based
From the text: as §1, §2

[3] = test system: Acinetobacter baumannii (A. baumannii) BAA747; test: Antibacterial activity, MIC (Table 4); format: cell-based; settings: A. baumannii BAA747, read-out: MIC, BAA747
Procedure, shortened: (§3)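 Broth microdilution; MIC (μg/mL) = lowest concentration with no macroscopically visible growth. Resistant strains: multi-drug resistant clinical isolates.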

[4] = test system: Klebsiella pneumoniae (K. pneumoniae) 35657; test: Antibacterial activity, MIC (Table 4); format: cell-based; settings: K. pneumoniae 35657, read-out: MIC, 35657
Procedure, shortened: as §3

[5] = test system: Staphylococcus aureus (S. aureus) 29213; test: Antibacterial activity, microbroth dilution MIC (Table 1); format: cell-based; settings: microbroth dilution, Gram-positive S. aureus 29213, read-out: MIC, 29213
Procedure, shortened: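 Potency is reported as minimum inhibitory concentration in μg/mL, determined by broth microdilution as the lowest level of compound that stops growth visible to the eye.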

[6] = test system: Escherichia coli (E. coli) BAS849; test: as above; format: cell-based; settings: microbroth dilution, super sensitive Gram-negative E. coli BAS849, read-out: MIC, BAS849
Procedure, shortened: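 Using broth microdilution, MIC endpoints (μg/mL) mark where visible growth no longer appears; the panel spans sensitive and control Gram-negative strains plus a Gram-positive strain.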

[7] = test system: Pseudomonas aeruginosa (P. aeruginosa) 27853; test: Antibacterial activity, MIC (Table 5); format: cell-based; settings: P. aeruginosa 27853, read-out: MIC, 27853
Procedure, shortened: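 Using a microbroth dilution format, the minimum inhibitory concentration was recorded as the lowest tested concentration that stopped visible bacterial growth, expressed in μg/mL.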

E. coli LZ3111 = test: Antibacterial activity, MIC, quinolone resistant strain (Table 2); format: cell-based; settings: Escherichia coli, LZ3111, read-out: MIC LZ3111
Procedure, shortened: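 Growth inhibition assessed by serial drug dilution in broth; endpoint was absence of macroscopically visible growth, reported as MIC, μg/mL.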

[8] = test system: Neisseria meningitidis (N. meningitidis) 13090; test: Antibacterial activity, MIC (Table 8); format: cell-based
From the text: as §1, §2

E. coli ELZ4251 = test: Antibacterial activity, MIC, multi-drug resistant clinical isolate (Table 3); format: cell-based; settings: Escherichia coli
Procedure, shortened: (§4)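 Values derive from a microbroth dilution method, taking as MIC (μg/mL) the lowest tested concentration without macroscopically visible growth.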

E. coli ELZ4000 = test: as above; format: cell-based; settings: Escherichia coli, ELZ4000, read-out: MIC ELZ4000
Procedure, shortened: as §4

E. coli 25922 = test: Antibacterial activity, microbroth dilution MIC (Table 1); format: cell-based, Escherichia coli; settings: Escherichia coli; microbroth dilution; control Gram-negative E. coli 25922 strain; read-out: MIC, 25922
Procedure, shortened: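 In a microbroth dilution test, the minimum inhibitory concentration was defined as the lowest compound level preventing growth seen by eye, and was given in μg/mL.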

A. baumannii MXX2240 = test: Antibacterial activity, MIC, resistant strain (Table 4); format: cell-based; settings: Acinetobacter baumannii, MXX2240; resistant A. baumannii MMX2240, multi-drug resistant clinical isolate; read-out: MIC, MMX2240
Procedure, shortened: as §3

K. pneumoniae MXX1232 = test: as above; format: cell-based; settings: Klebsiella pneumoniae, MXX1232; resistant K. pneumoniae MMX1232, multi-drug resistant clinical isolate; read-out: MIC, MMX1232
Procedure, shortened: as §3

Structure (SMILES)	MIC [1] [µg/mL]	MIC [2] [µg/mL]	MIC [3] [µg/mL]	MIC [4] [µg/mL]	MIC [5] [µg/mL]	MIC [6] [µg/mL]	MIC [7] [µg/mL]	MIC (E. coli LZ3111) [µg/mL]	MIC [8] [µg/mL]	MIC (E. coli ELZ4251) [µg/mL]	MIC (E. coli ELZ4000) [µg/mL]	MIC (E. coli 25922) [µg/mL]	MIC (A. baumannii MXX2240) [µg/mL]	MIC (K. pneumoniae MXX1232) [µg/mL]
CCc1c(-c2ccc3c(c2)cc(CN2CCC(C(C)(C)N)C2)n3C)[nH]c(=O)c(C(=O)O)c1O (stereo not shown) [Cpd 185, 6-(2-((3-(2-aminopropan-2-yl)pyrrolidin-1-yl)methyl)-1-methyl-1H-indol-5-yl)-5-ethyl-4-hydroxy-2-oxo-1,2-dihydropyridine-3-carboxylic acid]	1 to 3.5 (≈ 2.21 to 7.73 µM)	1 to 3.5 (≈ 2.21 to 7.73 µM)	12.5 to 150 (≈ 27.6 to 331 µM)	1 to 3.5 (≈ 2.21 to 7.73 µM)	12.5 to 150 (≈ 27.6 to 331 µM)	< 1	3.5 to 12.5 (≈ 7.73 to 27.6 µM)	1 to 3.5 (≈ 2.21 to 7.73 µM)	< 1	12.5 to 150 (≈ 27.6 to 331 µM)	12.5 to 150 (≈ 27.6 to 331 µM)	1 to 3.5 (≈ 2.21 to 7.73 µM)	12.5 to 150 (≈ 27.6 to 331 µM)	12.5 to 150 (≈ 27.6 to 331 µM)
CCc1c(-c2ccc3c(c2)cc2n3CCNC2)[nH]c(=O)c(C(=O)O)c1O [Cpd 305, 5-ethyl-4-hydroxy-2-oxo-6-(1,2,3,4-tetrahydropyrazino[1,2-a]indol-8-yl)-1,2-dihydropyridine-3-carboxylic acid]	< 1	< 1	1 to 3.5 (≈ 2.83 to 9.9 µM)	< 1	3.5 to 12.5 (≈ 9.9 to 35.4 µM)	< 1	3.5 to 12.5 (≈ 9.9 to 35.4 µM)	3.5 to 12.5 (≈ 9.9 to 35.4 µM)	< 1	3.5 to 12.5 (≈ 9.9 to 35.4 µM)	12.5 to 150 (≈ 35.4 to 424 µM)	< 1	12.5 to 150 (≈ 35.4 to 424 µM)	12.5 to 150 (≈ 35.4 to 424 µM)
CCc1c(-c2ccc3c(c2)cc(CNC2(C)CCC2)n3C)[nH]c(=O)c(C(=O)O)c1O.Cl [Cpd 245, 5-ethyl-4-hydroxy-6-(1-methyl-2-((1-methylcyclobutylamino)methyl)-1H-indol-5-yl)-2-oxo-1,2-dihydropyridine-3-carboxylic acid hydrochloride]	< 1	< 1	< 1	< 1	3.5 to 12.5	< 1	3.5 to 12.5	1 to 3.5	< 1	1 to 3.5	3.5 to 12.5	< 1	1 to 3.5	12.5 to 150
Cc1c(-c2ccc3c(c2)cc(CNCC2CC2)n3C)[nH]c(=O)c(C(=O)O)c1O [Cpd 315, 6-(2-((cyclopropylmethylamino)methyl)-1-methyl-1H-indol-5-yl)-4-hydroxy-5-methyl-2-oxo-1,2-dihydropyridine-3-carboxylic acid]	1 to 3.5 (≈ 2.62 to 9.18 µM)	3.5 to 12.5 (≈ 9.18 to 32.8 µM)	1 to 3.5 (≈ 2.62 to 9.18 µM)	1 to 3.5 (≈ 2.62 to 9.18 µM)	12.5 to 150 (≈ 32.8 to 393 µM)	< 1	12.5 to 150 (≈ 32.8 to 393 µM)	< 1	< 1	< 1	1 to 3.5 (≈ 2.62 to 9.18 µM)	1 to 3.5 (≈ 2.62 to 9.18 µM)	1 to 3.5 (≈ 2.62 to 9.18 µM)	12.5 to 150 (≈ 32.8 to 393 µM)
CCc1c(-c2ccc3c(c2)cc(CNCc2ccc(OC)cc2)n3C)[nH]c(=O)c(C(=O)O)c1O [Cpd 291, 5-ethyl-4-hydroxy-6-(2-((4-methoxybenzylamino)methyl)-1-methyl-1H-indol-5-yl)-2-oxo-1,2-dihydropyridine-3-carboxylic acid]	< 1	< 1	1 to 3.5 (≈ 2.17 to 7.58 µM)	3.5 to 12.5 (≈ 7.58 to 27.1 µM)	3.5 to 12.5 (≈ 7.58 to 27.1 µM)	< 1	12.5 to 150 (≈ 27.1 to 325 µM)	1 to 3.5 (≈ 2.17 to 7.58 µM)	< 1	12.5 to 150 (≈ 27.1 to 325 µM)	12.5 to 150 (≈ 27.1 to 325 µM)	< 1	1 to 3.5 (≈ 2.17 to 7.58 µM)	12.5 to 150 (≈ 27.1 to 325 µM)
